The target in test [1] is T1, human Tyk2 (amino acids 575-869, His-tagged) (Homo sapiens, UniProt P29597).
T1 construct: made in house
As to the kind of experiment: Probe displacement assay (SPA format). The class given is binding. Conditions: radiolabeled probe 40 nM, Tyk2 2.5 nM. The protocol: Probe Displacement Assay (SPA Format) The probe displacement assay is conducted as follows: In a […], test compounds along with recombinantly expressed His-tagged protein corresponding to amino acids 575-869 of human Tyk2 (sequence shown below) at 2.5 nM, 40 nM ((R)—N-(1-(3-(8-methyl-5-(methylamino)-8H-imidazo [4,5-d]thiazolo [5,4-b]pyridin-2-yl)phenyl)ethyl)-2-([^3H]methylsulfonyl)benzamide) (preparation described below) and 80 μg/mL Copper His-Tag scintillation proximity assay beads (Perkin Elmer, Catalog # RPNQ0095) in 50 mM HEPES, pH 7.5, containing 100 μg/mL bovine serum albumin and 5% DMSO were incubated for 30 minutes at room temperature. The amount of radiolabeled probe (preparation described below) bound to Tyk2 was then quantified by scintillation counting, and the inhibition by the test compound calculated by comparison to wells either with no inhibitor (0% inhibition) or without Tyk2 (100% inhibition). The EC50 value is defined as the concentration of test compound required to inhibit radiolabeled probe binding by 50%. Probe Displacement Assay (HTRF Format)

The test system of test [2] is IFNα stimulated Kit225 T cells (STAT-dependent luciferase reporter). As to the kind of experiment: Kit225 T cell assay, IFNα stimulated STAT-dependent luciferase reporter. The class given is cell-based. Conditions: 200 U/mL human recombinant IFNα, 5-6 hours. As for the experimental part:
(§1) Kit225 T cells with a stably-integrated STAT-dependent luciferase reporter were plated in RPMI (Gibco) containing 10% heat-inactivated FBS (Gibco) and 100 U/mL PenStrep (Gibco). The cells were then stimulated with either 20 ng/mL human recombinant IL-23 or 200 U/mL human recombinant IFNα (PBL InterferonSource) for 5-6 hours. Luciferase expression was measured using the STEADY-GLO® Luciferase Assay System (Promega) according to the manufacturer's instructions. Inhibition data were calculated by comparison to no inhibitor control wells for 0% inhibition and non-stimulated control wells for 100% inhibition. Dose response curves were generated to determine the concentration required to inhibit 50% of cellular response (IC50) as derived by non-linear regression analysis.
Background: In a reporter assay the amount or activity of a reporter protein is the signal.

Test [3] has as its system IL-23 stimulated Kit225 T cells (STAT-dependent luciferase reporter). Put plainly: Kit225 T cell assay, IL-23 stimulated STAT-dependent luciferase reporter. The class given is cell-based. As to conditions: 20 ng/mL human recombinant IL-23, 5-6 hours. As for the experimental part: as §1

As a reminder, the EC50 is the concentration that produces a half-maximal response. A high value points to lower potency in that assay. As a reminder, the IC50 is the concentration that gives 50% inhibition.

T1 sequence (P29597 with tags, fused parts or gaps): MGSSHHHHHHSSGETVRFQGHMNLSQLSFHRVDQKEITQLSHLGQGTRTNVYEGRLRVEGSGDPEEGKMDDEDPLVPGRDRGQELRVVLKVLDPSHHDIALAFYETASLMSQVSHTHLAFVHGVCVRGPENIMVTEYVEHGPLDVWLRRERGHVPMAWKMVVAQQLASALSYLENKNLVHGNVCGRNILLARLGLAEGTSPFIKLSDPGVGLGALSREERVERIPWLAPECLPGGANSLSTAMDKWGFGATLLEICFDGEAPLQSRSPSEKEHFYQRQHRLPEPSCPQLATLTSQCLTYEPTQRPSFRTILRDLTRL

`COc1ccc(Nc2cc(Nc3ccccc3S(C)(=O)=O)c3nc(C)[nH]c3n2)nn1` [Example 19, 7-N-(2-methanesulfonylphenyl)-5-N-(6-methoxypyridazin-3-yl)-2-methyl-3H-imidazo[4,5-b]pyridine-5,7-diamine]: the response in test [1] was half-maximal at 0.019 µM (EC50). The IC50 in test [2] was determined as 0.732 µM; in test [3], 0.48 µM.

Molecule `COc1c(Nc2cc(Nc3ccc(F)cn3)nc3[nH]c(C)nc23)cccc1-c1ncn(C)n1` [Example 40, 5-N-(5-fluoropyridin-2-yl)-7-N-[2-methoxy-3-(1-methyl-1H-1,2,4-triazol-3-yl)phenyl]-2-methyl-3H-imidazo[4,5-b]pyridine-5,7-diamine] registered an EC50 in test [1] of 0.038 µM. For the same molecule, the figures for the 50% inhibitory concentration (IC50) in test [2] and in test [3] were 1.24 µM and 0.738 µM, respectively.

Consider `Cc1nc2c(Nc3ccccc3S(C)(=O)=O)cc(Nc3cc(F)ccn3)nc2[nH]1` [Example 17, 5-N-(4-fluoropyridin-2-yl)-7-N-(2-methanesulfonylphenyl)-2-methyl-3H-imidazo[4,5-b]pyridine-5,7-diamine], for which the EC50 in test [1] is 0.015 µM. Moreover, the IC50 in test [2] came out at 0.128 µM; in test [3], 0.104 µM.

`Cc1ccc(Nc2cc(Nc3ccccc3S(C)(=O)=O)c3nc(C)[nH]c3n2)nn1` [Example 11, 7-N-(2-methanesulfonylphenyl)-2-methyl-5-N-(6-methylpyridazin-3-yl)-3H-imidazo[4,5-b]pyridine-5,7-diamine] came in with an EC50 in test [1] of 0.01 µM. Moreover, the IC50 in test [2] worked out at 0.463 µM; in test [3], 0.875 µM.

Consider `COc1c(Nc2cc(NC(=O)C3CC3)nc3[nH]c(C)nc23)cccc1-c1ncn(C)n1` [Example 39, N-(7-{[2-methoxy-3-(1-methyl-1H-1,2,4-triazol-3-yl)phenyl]amino}-2-methyl-3H-imidazo[4,5-b]pyridin-5-yl)cyclopropanecarboxamide], for which the EC50 in test [1] turned out to be 0.017 µM. The IC50 in test [2] worked out at 2.72 µM; in test [3], 3.01 µM.

`COc1cnc(Nc2cc(Nc3ccccc3S(C)(=O)=O)c3nc(C)[nH]c3n2)cn1` [Example 6, 7-N-(2-methanesulfonylphenyl)-5-N-(5-methoxypyrazin-2-yl)-2-methyl-3H-imidazo[4,5-b]pyridine-5,7-diamine] came in with an EC50 in test [1] of 0.037 µM. For the same molecule, the 50% inhibitory concentration (IC50) turned out to be 0.371 µM in test [2] and 0.447 µM in test [3].

`Cc1ccnc(Nc2cc(Nc3ccccc3S(C)(=O)=O)c3nc(C)[nH]c3n2)c1` [Example 20, 7-N-(2-methanesulfonylphenyl)-2-methyl-5-N-(4-methylpyridin-2-yl)-3H-imidazo[4,5-b]pyridine-5,7-diamine]: the EC50 in test [1] came to 0.053 µM. The IC50 in test [2] is 0.401 µM; in test [3], 0.407 µM.

For the molecule `Cc1nc2c(Nc3ccccc3S(C)(=O)=O)cc(NC(=O)C3CC3)nc2[nH]1` [Example 7, N-{7-[(2-methanesulfonylphenyl)amino]-2-methyl-3H-imidazo[4,5-b]pyridin-5-yl}cyclopropanecarboxamide], in test [1], the EC50 was found to be 0.014 µM. Besides, the IC50 was 0.285 µM in test [2] and 0.718 µM in test [3].

`Cc1nc2c(Nc3ccccc3S(C)(=O)=O)cc(Nc3ccc(C(N)=O)cn3)nc2[nH]1` [Example 14, 6-({7-[(2-methanesulfonylphenyl)amino]-2-methyl-3H-imidazo[4,5-b]pyridin-5-yl}amino)pyridine-3-carboxamide] registered an EC50 in test [1] of 0.011 µM. Also, the IC50 in test [2] was found to be 6.08 µM; in test [3], 7.86 µM.

The molecule `Cc1nc2c(Nc3ccccc3S(C)(=O)=O)cc(Nc3ccn4nccc4n3)nc2[nH]1` [Example 27, 7-N-(2-methanesulfonylphenyl)-2-methyl-5-N-{pyrazolo[1,5-a]pyrimidin-5-yl}-3H-imidazo[4,5-b]pyridine-5,7-diamine] showed an EC50 in test [1] of 0.004 µM. For the same molecule, the IC50 was 0.123 µM in test [2] and 0.327 µM in test [3].

Regarding `COc1ccccc1Nc1cc(Nc2cc(C)nc(C)n2)nc2[nH]c(C)nc12` [Example 36, 5-N-(2,6-dimethylpyrimidin-4-yl)-7-N-(2-methoxyphenyl)-2-methyl-3H-imidazo[4,5-b]pyridine-5,7-diamine], the EC50 in test [1] worked out at 0.291 µM. The values for the IC50 in test [2] and in test [3] were 1.52 µM and 0.824 µM, respectively.

`Cc1nc2c(Nc3ccccc3S(C)(=O)=O)cc(Nc3cccc(C(F)(F)F)n3)nc2[nH]1` [Example 23, 7-N-(2-methanesulfonylphenyl)-2-methyl-5-N-[6-(trifluoromethyl)pyridin-2-yl]-3H-imidazo[4,5-b]pyridine-5,7-diamine] gave an EC50 in test [1] of 0.005 µM. For the same molecule, the values for the IC50 in test [2] and in test [3] were 0.044 µM and 0.081 µM, respectively.

`Cc1nc2c(Nc3ccccc3S(C)(=O)=O)cc(Nc3ccc(C#N)cn3)nc2[nH]1` [Example 13, 6-({7-[(2-methanesulfonylphenyl)amino]-2-methyl-3H-imidazo[4,5-b]pyridin-5-yl}amino)pyridine-3-carbonitrile]: in test [1], a half-maximal response (EC50) required 0.009 µM. The results for the IC50 in test [2] and in test [3] were 0.19 µM and 0.185 µM, respectively.

In test [1], `Cc1nc2c(Nc3ccccc3S(C)(=O)=O)cc(Nc3ccc(C(=O)N4CCOCC4)cn3)nc2[nH]1` [Example 8, 7-N-(2-methanesulfonylphenyl)-2-methyl-5-N-[5-(morpholine-4-carbonyl)pyridin-2-yl]-3H-imidazo[4,5-b]pyridine-5,7-diamine] came in with an EC50 of 0.021 µM. Besides, the IC50 in test [2] is 1.47 µM; in test [3], 1.95 µM.

Regarding `CCc1nc2c(Nc3ccccc3S(C)(=O)=O)cc(Nc3cc(C)nc(C)n3)nc2[nH]1` [Example 52, 5-N-(2,6-dimethylpyrimidin-4-yl)-2-ethyl-7-N-(2-methanesulfonylphenyl)-3H-imidazo[4,5-b]pyridine-5,7-diamine], the concentration giving a half-maximal response (EC50) in test [1] was 0.107 µM. Besides, the half-maximal inhibitory concentration (IC50) was 4.26 µM in test [2] and 1.41 µM in test [3].

In the case of `Cc1nc2c(Nc3ccccc3S(C)(=O)=O)cc(Nc3ccc(C(F)(F)F)cn3)nc2[nH]1` [Example 10, 7-N-(2-methanesulfonylphenyl)-2-methyl-5-N-[5-(trifluoromethyl)pyridin-2-yl]-3H-imidazo[4,5-b]pyridine-5,7-diamine], the EC50 in test [1] was determined as 0.013 µM. The half-inhibitory concentration (IC50) in test [2] is 0.19 µM; in test [3], 0.143 µM.

Consider `Cc1nc2c(Nc3ccccc3C(N)=O)cc(Nc3ccc(N4CCOCC4)cn3)nc2[nH]1` [Example 34, 2-[(2-methyl-5-{[5-(morpholin-4-yl)pyridin-2-yl]amino}-3H-imidazo[4,5-b]pyridin-7-yl)amino]benzamide], for which the IC50 in test [2] was 5.12 µM; in test [3], 4.38 µM.

`Cc1cc(Nc2cc(Nc3ccccc3C(N)=O)c3nc(C)[nH]c3n2)nc(C)n1` [Example 33, 2-({5-[(2,6-dimethylpyrimidin-4-yl)amino]-2-methyl-3H-imidazo[4,5-b]pyridin-7-yl}amino)benzamide]: the half-maximal inhibitory concentration (IC50) in test [2] was 1.22 µM; in test [3], 1.96 µM.

Take `Cc1nc2c(Nc3ccccc3S(C)(=O)=O)cc(Nc3ccn(C)n3)nc2[nH]1` [Example 22, 7-N-(2-methanesulfonylphenyl)-2-methyl-5-N-(1-methyl-1H-pyrazol-3-yl)-3H-imidazo[4,5-b]pyridine-5,7-diamine]: the results for the IC50 in test [2] and in test [3] were 0.264 µM and 0.37 µM, respectively.

The record behind these values is patent US10781215B2, “Heterobicyclic compounds useful as modulators of IL-12, IL-23 and/or IFNα responses” (BRISTOL-MYERS SQUIBB COMPANY, priority 2016, dated 2020).
